These results are taken from ChEMBL document CHEMBL1140474, “Enhancement of oral drug absorption-effect of lipid conjugation on the enzymatic stability and intestinal permeability of l-Glu-l-Trp-NH(2)” (Bioorg Med Chem, 2007).

SMILES strings stand for the structures. Where a SMILES comes first, the peptide text is derived from it. [ ]: non-standard residue; d: D form. ξ: configuration not given here. ξGly(dodecyl) = CCCCCCCCCCCCC(N)C(=O)O; ξGly(decyl) = CCCCCCCCCCC(N)C(=O)O; ξGly(octyl) = CCCCCCCCC(N)C(=O)O; ξAoc(2) = CCCCCCC(N)C(=O)O

Data set [1] is described as follows: Apparent permeability across human Caco-2 cells. In kind it is ADME, cell-based.
The nature of data set [2]: Stability in human Caco-2 homogenates after 2 hrs. In kind it is ADME. To be noted: Caco-2 cell homogenates, read-out: Stability.
The nature of data set [3]: Stability in human Caco-2 homogenates after 1 hr. In kind it is ADME. To be noted: Caco-2 cell homogenates, read-out: Stability.
Data set [4] concerns Caco-2. As to the kind of experiment: Stability in human Caco-2 homogenates after 10 mins. In kind it is ADME. As to conditions: caco-2, 10 min; call rule not given here.
The subject of data set [5] is Caco-2. As to the kind of experiment: Stability in human Caco-2 homogenates after 20 mins. In kind it is ADME. As to conditions: caco-2, 20 min.

As for `CCCCCCCCCCC(NC(=O)[C@@H](N)CCC(=O)O)C(=O)N[C@@H](Cc1c[nH]c2ccccc12)C(N)=O` (some centres not stated), in data set [1], the apparent permeability coefficient (Papp) amounted to 4.66 ×10⁻⁶ cm/s. Also, the remaining at 2 h in data set [2] stood at 40%.
In the same order, the values of `CCCCCCCCC(N)C(=O)N[C@@H](CCC(=O)O)C(=O)N[C@@H](Cc1c[nH]c2ccccc12)C(N)=O` (some centres not stated) are 1.55 ×10⁻⁶ cm/s and 40%.
Consider `CCCCCCCCCCC(N)C(=O)N[C@@H](CCC(=O)O)C(=O)N[C@@H](Cc1c[nH]c2ccccc12)C(N)=O` (some centres not stated), for which, in data set [1], the apparent permeability coefficient (Papp) amounted to 9.26 ×10⁻⁶ cm/s. The remaining at 1 h in data set [3] turned out to be 75%. Besides, the remaining at 2 h in data set [2] came out at 65%.
In the case of `CCCCCCCCCCCCC(N)C(=O)N[C@@H](CCC(=O)O)C(=O)N[C@@H](Cc1c[nH]c2ccccc12)C(N)=O` (some centres not stated), the apparent permeability coefficient (Papp) in data set [1] came out at 1.02 ×10⁻⁶ cm/s. In addition, the remaining at 1 h in data set [3] was 75%. Also, the remaining at 2 h in data set [2] worked out at 65%.
Take `CCCCCCCCC(NC(=O)[C@@H](N)CCC(=O)O)C(=O)N[C@@H](Cc1c[nH]c2ccccc12)C(N)=O` (some centres not stated): the apparent permeability coefficient (Papp) in data set [1] turned out to be 3.99 ×10⁻⁶ cm/s. In the data set with Caco-2 [4], this compound displayed a Stability of 15%. The remaining at 2 h in data set [2] was found to be 40%.
In the case of `NC(=O)[C@H](Cc1c[nH]c2ccccc12)NC(=O)[C@@H](N)CCC(=O)O` (H-Glu-Trp-NH2), the Papp in data set [1] is 7.76 ×10⁻⁶ cm/s. Also, the remaining at 2 h in data set [2] is 35%.
Turning to `CCCCCCC(NC(=O)[C@@H](N)CCC(=O)O)C(=O)N[C@@H](Cc1c[nH]c2ccccc12)C(N)=O` (some centres not stated) (H-Glu-[ξAoc(2)]-Trp-NH2), the apparent permeability (Papp) in data set [1] stood at 3.83 ×10⁻⁶ cm/s. In addition, the remaining at 2 h in data set [2] was 40%.
As for `CCCCCCC(N)C(=O)N[C@@H](CCC(=O)O)C(=O)N[C@@H](Cc1c[nH]c2ccccc12)C(N)=O` (stereo partly drawn) (H-[ξAoc(2)]-Glu-Trp-NH2), the apparent permeability (Papp) in data set [1] stood at 4.84 ×10⁻⁶ cm/s. For the same compound, in data set [2], the remaining at 2 h is 40%.
`CCCCCCC(N)C(=O)NC(CCCCCC)C(=O)N[C@@H](CCC(=O)O)C(=O)N[C@@H](Cc1c[nH]c2ccccc12)C(N)=O` (some centres not stated) (H-[ξAoc(2)][ξAoc(2)]EW-NH2): the apparent permeability (Papp) in data set [1] amounted to 8.32 ×10⁻⁶ cm/s. Also, the Activity result in the data set with Caco-2 [5] is “Not Active”. In addition, the remaining at 2 h in data set [2] was determined as 90%.
In the case of `CCCCCCCCCCC(N)C(=O)NC(CCCCCCCCCC)C(=O)N[C@@H](CCC(=O)O)C(=O)N[C@@H](Cc1c[nH]c2ccccc12)C(N)=O` (some centres not stated) (H-[ξGly(decyl)][ξGly(decyl)]EW-NH2), the Papp in data set [1] is 3.09 ×10⁻⁶ cm/s. Also, the Activity result in the data set on Caco-2 [5] is listed as “Not Active”. Further, the remaining at 2 h in data set [2] is 90%.
For the compound `CCCCCCCCCCCCC(N)C(=O)NC(CCCCCCCCCCCC)C(=O)N[C@@H](CCC(=O)O)C(=O)N[C@@H](Cc1c[nH]c2ccccc12)C(N)=O` (some centres not stated) (H-[ξGly(dodecyl)][ξGly(dodecyl)]EW-NH2), the Papp in data set [1] is 2.77 ×10⁻⁶ cm/s. The Activity result with Caco-2 [5] was “Not Active”. Moreover, in data set [2], the remaining at 2 h was found to be 90%.
Turning to `CCCCCCCCC(N)C(=O)NC(CCCCCCCC)C(=O)N[C@@H](CCC(=O)O)C(=O)N[C@@H](Cc1c[nH]c2ccccc12)C(N)=O` (some centres not stated) (H-[ξGly(octyl)][ξGly(octyl)]EW-NH2), the Papp in data set [1] was found to be 1.79 ×10⁻⁶ cm/s. This compound registered a Stability in the data set on Caco-2 [4] of 15%. The Activity result in the data set with Caco-2 [5] is on record as “Not Active”. In addition, the remaining at 2 h in data set [2] stood at 40%.

The term Papp denotes a coefficient for how fast a substance crosses the barrier.
